#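 48-hour exposure; five concentrations; linearly interpolated endpoints. GI50 = concentration required for 50% inhibition of growth. TGI marks complete inhibition of growth.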
# How the values were obtained:
# Assay in all cases: NCI tumour cell line growth inhibition, 48 h
# SK-OV-3 ovarian = tested on: SK-OV-3 ovarian
# A549 NSCLC = tested on: A549 NSCLC
# NCI/ADR-RES ovarian = tested on: NCI/ADR-RES ovarian
# OVCAR-3 ovarian = tested on: OVCAR-3 ovarian
# OVCAR-4 ovarian = tested on: OVCAR-4 ovarian
# SK-MEL-5 melanoma = tested on: SK-MEL-5 melanoma
# CAKI-1 renal = tested on: CAKI-1 renal
# MOLT-4 leukemia = tested on: MOLT-4 leukemia
# RPMI-8226 leukemia = tested on: RPMI-8226 leukemia
# SNB-19 CNS = tested on: SNB-19 CNS
# SF-539 CNS = tested on: SF-539 CNS
# SN12C renal = tested on: SN12C renal
# NCI-H460 lung = tested on: NCI-H460 lung
# PC-3 prostate = tested on: PC-3 prostate
# MCF7 breast = tested on: MCF7 breast
# HS 578T breast = tested on: HS 578T breast
# NCI-H23 lung = tested on: NCI-H23 lung
# 786-0 renal = tested on: 786-0 renal
# U251 CNS = tested on: U251 CNS
# HL-60(TB) leukemia = tested on: HL-60(TB) leukemia
# HCC-2998 colon = tested on: HCC-2998 colon
# MDA-MB-231 breast = tested on: MDA-MB-231 breast
# SF-295 CNS = tested on: SF-295 CNS
# HT29 colon = tested on: HT29 colon
# ACHN renal = tested on: ACHN renal
# DU-145 prostate = tested on: DU-145 prostate
# LOX IMVI melanoma = tested on: LOX IMVI melanoma
# NCI-H522 lung = tested on: NCI-H522 lung
# A498 renal = tested on: A498 renal
# NCI-H226 lung = tested on: NCI-H226 lung
# HCT-15 colon = tested on: HCT-15 colon
# CCRF-CEM leukemia = tested on: CCRF-CEM leukemia
# M14 melanoma = tested on: M14 melanoma
# T-47D breast = tested on: T-47D breast
# SW-620 colon = tested on: SW-620 colon
# MDA-MB-435 = tested on: MDA-MB-435
# RXF 393 renal = tested on: RXF 393 renal
# UACC-62 melanoma = tested on: UACC-62 melanoma
# BT-549 breast = tested on: BT-549 breast
# HCT-116 colon = tested on: HCT-116 colon
# SF-268 CNS = tested on: SF-268 CNS
# UACC-257 melanoma = tested on: UACC-257 melanoma
# COLO 205 colon = tested on: COLO 205 colon
# MALME-3M melanoma = tested on: MALME-3M melanoma
# UO-31 renal = tested on: UO-31 renal
# SNB-75 CNS = tested on: SNB-75 CNS
# TK-10 renal = tested on: TK-10 renal
# OVCAR-8 ovarian = tested on: OVCAR-8 ovarian
# KM12 colon = tested on: KM12 colon
# EKVX NSCLC = tested on: EKVX NSCLC
# HOP-62 NSCLC = tested on: HOP-62 NSCLC
# IGROV1 ovarian = tested on: IGROV1 ovarian
# SR leukemia = tested on: SR leukemia
# SK-MEL-28 melanoma = tested on: SK-MEL-28 melanoma
# MDA-MB-468 breast = tested on: MDA-MB-468 breast
# SK-MEL-2 melanoma = tested on: SK-MEL-2 melanoma
# HOP-92 NSCLC = tested on: HOP-92 NSCLC
# K-562 leukemia = tested on: K-562 leukemia
# OVCAR-5 ovarian = tested on: OVCAR-5 ovarian
smiles,measurement,setting,value
CC(=O)Nc1cccc(-c2nc3cc(-c4ccc(O)cc4)ccc3n2C)c1,GI50,SK-OV-3 ovarian,25.8 µM
same,TGI,SK-OV-3 ovarian,96.5 µM
same,GI50,A549 NSCLC,12.1 µM
same,TGI,A549 NSCLC,60.1 µM
same,GI50,NCI/ADR-RES ovarian,21 µM
same,TGI,NCI/ADR-RES ovarian,63.5 µM
same,GI50,OVCAR-3 ovarian,16.2 µM
same,TGI,OVCAR-3 ovarian,63.5 µM
same,GI50,OVCAR-4 ovarian,3.64 µM
same,TGI,OVCAR-4 ovarian,27.2 µM
same,GI50,SK-MEL-5 melanoma,3.24 µM
same,TGI,SK-MEL-5 melanoma,11.6 µM
same,GI50,CAKI-1 renal,11.5 µM
same,TGI,CAKI-1 renal,49.2 µM
same,GI50,MOLT-4 leukemia,4.6 µM
same,TGI,MOLT-4 leukemia,29.5 µM
same,GI50,RPMI-8226 leukemia,4.7 µM
same,TGI,RPMI-8226 leukemia,23.8 µM
same,GI50,SNB-19 CNS,27.2 µM
same,TGI,SNB-19 CNS,> 100 µM
same,GI50,SF-539 CNS,16.1 µM
same,TGI,SF-539 CNS,62.8 µM
same,GI50,SN12C renal,17.8 µM
same,TGI,SN12C renal,> 100 µM
same,GI50,NCI-H460 lung,11.6 µM
same,TGI,NCI-H460 lung,36.4 µM
same,GI50,PC-3 prostate,13.7 µM
same,TGI,PC-3 prostate,65 µM
same,GI50,MCF7 breast,4.38 µM
same,TGI,MCF7 breast,22.2 µM
same,GI50,HS 578T breast,19.7 µM
same,TGI,HS 578T breast,> 100 µM
same,GI50,NCI-H23 lung,10.6 µM
same,TGI,NCI-H23 lung,31 µM
same,GI50,786-0 renal,28.2 µM
same,TGI,786-0 renal,> 100 µM
same,GI50,U251 CNS,18.3 µM
same,TGI,U251 CNS,> 100 µM
same,GI50,HL-60(TB) leukemia,10.6 µM
same,TGI,HL-60(TB) leukemia,39.7 µM
same,GI50,HCC-2998 colon,17.1 µM
same,TGI,HCC-2998 colon,74 µM
same,GI50,MDA-MB-231 breast,23.7 µM
same,TGI,MDA-MB-231 breast,> 100 µM
same,GI50,SF-295 CNS,10.1 µM
same,TGI,SF-295 CNS,36.2 µM
same,GI50,HT29 colon,24 µM
same,TGI,HT29 colon,> 100 µM
same,GI50,ACHN renal,5.17 µM
same,TGI,ACHN renal,47.7 µM
same,GI50,DU-145 prostate,16.6 µM
same,TGI,DU-145 prostate,65.3 µM
same,GI50,LOX IMVI melanoma,14.3 µM
same,TGI,LOX IMVI melanoma,31.7 µM
same,GI50,NCI-H522 lung,5.16 µM
same,TGI,NCI-H522 lung,20.7 µM
same,GI50,A498 renal,19.2 µM
same,TGI,A498 renal,67.6 µM
same,GI50,NCI-H226 lung,7.76 µM
same,TGI,NCI-H226 lung,51.7 µM
same,GI50,HCT-15 colon,18.8 µM
same,TGI,HCT-15 colon,68.8 µM
same,GI50,CCRF-CEM leukemia,6.06 µM
same,TGI,CCRF-CEM leukemia,50 µM
same,GI50,M14 melanoma,12.9 µM
same,TGI,M14 melanoma,26.8 µM
same,GI50,T-47D breast,2.91 µM
same,TGI,T-47D breast,11.9 µM
same,GI50,SW-620 colon,16.8 µM
same,TGI,SW-620 colon,42.9 µM
same,GI50,MDA-MB-435,5.29 µM
same,TGI,MDA-MB-435,19.3 µM
same,GI50,RXF 393 renal,11.4 µM
same,TGI,RXF 393 renal,39.5 µM
same,GI50,UACC-62 melanoma,7.42 µM
same,TGI,UACC-62 melanoma,24.9 µM
same,GI50,BT-549 breast,5.07 µM
same,TGI,BT-549 breast,17.7 µM
same,GI50,HCT-116 colon,15.1 µM
same,TGI,HCT-116 colon,50.9 µM
same,GI50,SF-268 CNS,17.7 µM
same,TGI,SF-268 CNS,> 100 µM
same,GI50,UACC-257 melanoma,3.76 µM
same,TGI,UACC-257 melanoma,15.5 µM
same,GI50,COLO 205 colon,17.3 µM
same,TGI,COLO 205 colon,34.2 µM
same,GI50,MALME-3M melanoma,5.01 µM
same,TGI,MALME-3M melanoma,18.6 µM
same,GI50,UO-31 renal,10.8 µM
same,TGI,UO-31 renal,31.8 µM
same,GI50,SNB-75 CNS,9.43 µM
same,TGI,SNB-75 CNS,46.3 µM
same,GI50,TK-10 renal,19.4 µM
same,TGI,TK-10 renal,81.5 µM
same,GI50,OVCAR-8 ovarian,10.8 µM
same,TGI,OVCAR-8 ovarian,26.9 µM
same,GI50,KM12 colon,12.8 µM
same,TGI,KM12 colon,29.7 µM
same,GI50,EKVX NSCLC,13.8 µM
same,TGI,EKVX NSCLC,51 µM
same,GI50,HOP-62 NSCLC,28.1 µM
same,TGI,HOP-62 NSCLC,65.4 µM
same,GI50,IGROV1 ovarian,14.4 µM
same,TGI,IGROV1 ovarian,46.6 µM
same,GI50,SR leukemia,12.3 µM
same,TGI,SR leukemia,> 100 µM
same,GI50,SK-MEL-28 melanoma,11.4 µM
same,TGI,SK-MEL-28 melanoma,29.6 µM
same,GI50,MDA-MB-468 breast,1.83 µM
same,TGI,MDA-MB-468 breast,7.12 µM
same,GI50,SK-MEL-2 melanoma,8.73 µM
same,TGI,SK-MEL-2 melanoma,26.1 µM
same,GI50,HOP-92 NSCLC,11.7 µM
same,TGI,HOP-92 NSCLC,> 100 µM
same,GI50,K-562 leukemia,8.91 µM
same,TGI,K-562 leukemia,> 100 µM
same,GI50,OVCAR-5 ovarian,25.8 µM
same,TGI,OVCAR-5 ovarian,93.5 µM

# From PubChem BioAssay (NCI)
